Data reported in patent US12252701B2, “Chimeric antigen receptor T cell therapy” (KITE PHARMA, INC., priority 2020, dated 2025).
Read-outs that look alike come from different tables or passages of the source.

Legend:
[1] = Clinical pharmacokinetic data converted to in vitro concentrations; conditions: human, in vivo
From the text: Given the different potencies of the JAK inhibitors and different pharmacokinetic properties for each drug, it was sought to test each drug at a relevant range of physiological concentrations based on clinical dosing and reported pharmacokinetic data from repeat dose studies. Reported Cmax values in patient sera were converted to in vitro concentrations and adjusted for reported plasma protein binding.

in vitro = conditions: human, CAR-T cells
[2] = cited from earlier work
CAR-T cells = test: CAR-T cell expansion assay (KIP-1 or CD3/CD28 stimulation); conditions: CD3/CD28
CD19 CAR T cells = test: CAR T cell cytokine production (Luminex) under CD19 K562, KIP-1 or CD2/3/28 stimulation; conditions: 72 h; for IC50: Homo sapiens, T-cell

Question: Which “PPB adj. in Vitro concentration” value [1] does the source give for C[C@@H]1C[C@H]2[C@@H]3CCC4=CC(=O)C=C[C@]4(C)[C@@]3(F)[C@@H](O)C[C@]2(C)[C@@]1(O)C(=O)CO [dexamethasone] here?
Answer: 67.4 nM

Question: What about the “clinically relevant dose level (in vitro concentration)” value [1] of the same compound?
Answer: ~70 nM

Question: What about the viability at 0 day, 50 nM (in vitro) of the same compound?
Answer: 75%

Question: What about the viability at 0 day, 100 nM (in vitro) of the same compound?
Answer: 75%

Question: And the viability at 4 day, 50 nM (in vitro)?
Answer: 65.9%

Question: And the viability at 4 day, 100 nM (in vitro)?
Answer: 52.8%

Question: What about the viability at 8 day, 50 nM (in vitro) of the same compound?
Answer: 53.8%

Question: And the viability at 8 day, 100 nM (in vitro)?
Answer: 56.6%

Question: What about the viability at 12 day, 50 nM (in vitro) of the same compound?
Answer: 67.8%

Question: And the viability at 12 day, 100 nM (in vitro)?
Answer: 56.5%

Question: What about the “Cmax” value ([2]; human, in vivo) of the same compound?
Answer: 115 ng/mL

Question: What about the Protein binding ([2]; plasma protein binding, reported) of the same compound?
Answer: 77%

Question: What about the “% viability” value (CAR-T cells; dose 50 nM, day 4) of the same compound?
Answer: 45.9%

Question: And the “% viability” value (CAR-T cells; dose 50 nM, day 8)?
Answer: 44.4%

Question: What about the “% viability” value (CAR-T cells; dose 50 nM, day 12) of the same compound?
Answer: 74.7%

Question: And the “% viability” value (CAR-T cells; dose 100 nM, day 4)?
Answer: 53.4%

Question: And the “% viability” value (CAR-T cells; dose 100 nM, day 8)?
Answer: 51.3%

Question: What about the “% viability” value (CAR-T cells; dose 100 nM, day 12) of the same compound?
Answer: 66.3%

Question: And the “Suppression of cytokine production, MCP-1, % inh.” value (CD19 CAR T cells; CD3/CD28 stimulation)?
Answer: >80% inh.

Question: And the “Suppression of cytokine production, TNFa, % inh.” value (CD19 CAR T cells; CD3/CD28 stimulation)?
Answer: >50% inh.

Question: What about the IC50 (CD19 CAR T cells; read-out: Suppression of cytokine production, GMCSF (IC50), CD3/CD28 stimulation, 72 h) of the same compound?
Answer: > 10 µM

Question: What about the IC50 (CD19 CAR T cells; read-out: Suppression of cytokine production, GMCSF (IC50), K562-CD19 stimulation, 72 h) of the same compound?
Answer: > 10 µM

Question: And the IC50 (CD19 CAR T cells; read-out: Suppression of cytokine production, GzB (IC50), CD3/CD28 stimulation, 72 h)?
Answer: > 10 µM

Question: What about the IC50 (CD19 CAR T cells; read-out: Suppression of cytokine production, GzB (IC50), K562-CD19 stimulation, 72 h) of the same compound?
Answer: > 10 µM

Question: And the IC50 (CD19 CAR T cells; read-out: Suppression of cytokine production, GzB (IC50), KIP-1 stimulation, 72 h)?
Answer: > 10 µM

Question: What about the IC50 (CD19 CAR T cells; read-out: Suppression of cytokine production, IFNg (IC50), CD3/CD28 stimulation, 72 h) of the same compound?
Answer: > 10 µM

Question: What about the IC50 (CD19 CAR T cells; read-out: Suppression of cytokine production, IFNg (IC50), K562-CD19 stimulation, 72 h) of the same compound?
Answer: > 10 µM

Question: And the IC50 (CD19 CAR T cells; read-out: Suppression of cytokine production, IFNg (IC50), KIP-1 stimulation, 72 h)?
Answer: > 10 µM

Question: What about the IC50 (CD19 CAR T cells; read-out: Suppression of cytokine production, IL-2Ra (IC50), CD3/CD28 stimulation, 72 h) of the same compound?
Answer: > 10 µM

Question: And the IC50 (CD19 CAR T cells; read-out: Suppression of cytokine production, IL-2Ra (IC50), K562-CD19 stimulation, 72 h)?
Answer: > 10 µM

Question: What about the IC50 (CD19 CAR T cells; read-out: Suppression of cytokine production, IL-8 (IC50), CD3/CD28 stimulation, 72 h) of the same compound?
Answer: > 10 µM

Question: What about the IC50 (CD19 CAR T cells; read-out: Suppression of cytokine production, IL-8 (IC50), K562-CD19 stimulation, 72 h) of the same compound?
Answer: > 10 µM

Question: What about the IC50 (CD19 CAR T cells; read-out: Suppression of cytokine production, IL-10 (IC50), CD3/CD28 stimulation, 72 h) of the same compound?
Answer: > 10 µM

Question: What about the IC50 (CD19 CAR T cells; read-out: Suppression of cytokine production, MIG (IC50), CD3/CD28 stimulation, 72 h) of the same compound?
Answer: > 10 µM

Question: What about the IC50 (CD19 CAR T cells; read-out: Suppression of cytokine production, MIP-1a (IC50), CD3/CD28 stimulation, 72 h) of the same compound?
Answer: > 10 µM

Question: And the IC50 (CD19 CAR T cells; read-out: Suppression of cytokine production, MIP-1a (IC50), K562-CD19 stimulation, 72 h)?
Answer: > 10 µM

Question: And the IC50 (CD19 CAR T cells; read-out: Suppression of cytokine production, MIP-1a (IC50), KIP-1 stimulation, 72 h)?
Answer: > 10 µM

Question: And the IC50 (CD19 CAR T cells; read-out: Suppression of cytokine production, MIP-1b (IC50), CD3/CD28 stimulation, 72 h)?
Answer: > 10 µM

Question: What about the IC50 (CD19 CAR T cells; read-out: Suppression of cytokine production, MIP-1b (IC50), K562-CD19 stimulation, 72 h) of the same compound?
Answer: > 10 µM

Question: What about the IC50 (CD19 CAR T cells; read-out: Suppression of cytokine production, MIP-1b (IC50), KIP-1 stimulation, 72 h) of the same compound?
Answer: > 10 µM

Question: And the IC50 (CD19 CAR T cells; read-out: Suppression of cytokine production, Perforin (IC50), CD3/CD28 stimulation, 72 h)?
Answer: > 10 µM

Question: And the IC50 (CD19 CAR T cells; read-out: Suppression of cytokine production, Perforin (IC50), K562-CD19 stimulation, 72 h)?
Answer: > 10 µM

Question: What about the IC50 (CD19 CAR T cells; read-out: Suppression of cytokine production, Perforin (IC50), KIP-1 stimulation, 72 h) of the same compound?
Answer: > 10 µM

Question: And the “Suppression of cytokine production, IL-6, % inh.” value (CD19 CAR T cells; KIP-1 stimulation)?
Answer: 66% inh.

Question: What about the “Suppression of cytokine production, IL-10, % inh.” value (CD19 CAR T cells; KIP-1 stimulation) of the same compound?
Answer: 50% inh.

Question: And the “Suppression of cytokine production, MCP-1, % inh.” value (CD19 CAR T cells; KIP-1 stimulation)?
Answer: 66% inh.

Question: What about the “Suppression of cytokine production, MIG, % inh.” value (CD19 CAR T cells; KIP-1 stimulation) of the same compound?
Answer: 50% inh.

Question: What about the “Suppression of cytokine production, TNFa, % inh.” value (CD19 CAR T cells; KIP-1 stimulation) of the same compound?
Answer: 75% inh.
